Patent US9474790B2, “Stable, protracted GLP-1/glucagon receptor co-agonists for medical use” (Novo Nordisk A/S, priority 2013, dated 2016)
Numbered stars: 1 amine (or outer) side, 2 acyl side, 3 side chain; on linkers, the order of the positions; unused ones are H or OH. Square brackets hold non-standard residues; d marks the D form. Side chains are listed from the residue outwards. Peptide text beside a SMILES is read from it. * marks the point of attachment. C18 diacid = O=C(O)CCCCCCCCCCCCCCCCC(=O)*; γGlu = O=C(O)[C@H](CCC(=O)[*:2])N[*:1]; AEEA = NCCOCCOCC(=O)O; Aib = CC(C)(N)C(=O)O

Legend:
human GLP-1 receptor = molecular target: T1, human GLP-1 receptor (Homo sapiens, UniProt P43220); test: GLP-1 receptor binding, 125I-GLP-1 displacement SPA on isolated membranes; details: displacement of 125I-GLP-1 from membranes; read-out: IC50 GLP-1R
T1 construct: expressed in transfected cells; host or cells: BHK cells (parent BHKTS13), clone FCW467-12A/KZ10-1, with CRE luciferase
T1 sequence (P43220 24-463): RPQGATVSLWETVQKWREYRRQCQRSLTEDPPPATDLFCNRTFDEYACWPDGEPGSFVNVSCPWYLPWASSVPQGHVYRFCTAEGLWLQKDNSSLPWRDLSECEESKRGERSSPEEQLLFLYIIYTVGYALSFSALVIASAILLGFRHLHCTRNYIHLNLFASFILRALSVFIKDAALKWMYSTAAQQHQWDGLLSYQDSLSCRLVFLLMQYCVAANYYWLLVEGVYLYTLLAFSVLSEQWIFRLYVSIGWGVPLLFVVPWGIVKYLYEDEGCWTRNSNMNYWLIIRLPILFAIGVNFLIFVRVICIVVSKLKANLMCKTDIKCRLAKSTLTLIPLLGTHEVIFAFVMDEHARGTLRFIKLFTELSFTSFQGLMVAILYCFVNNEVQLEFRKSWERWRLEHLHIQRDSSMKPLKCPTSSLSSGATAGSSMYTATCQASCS
Experimental: The purpose of this assay was to test the in vitro receptor binding activity of the glucagon derivatives of the invention. The receptor binding is a measure of affinity of a compound for the human GLP-1 receptor.
The receptor binding of each compound to the human GLP-1 receptor was measured in a displacement binding assay. In this type of assay a labelled ligand (in this case 125I-GLP-1) is bound to the receptor. Each derivative was added in a series of concentrations to isolated membranes containing the human GLP-1 receptor and displacement of the labelled ligand was monitored. The receptor binding was reported as the concentration at which half of the labelled ligand was displaced from the receptor, the IC50 value.
In order to test the binding of the derivatives to albumin, the assay may be performed in a very low concentration of serum albumin (max. 0.001% final assay concentration) as well as in the presence of a higher concentration of serum albumin (2.0% final assay concentration). An increase of the IC50 value, in the presence of serum albumin indicates an affinity to serum albumin and represents a method to predict a protracted pharmacokinetic profile of the test substance in animal models.
The following chemicals were used in the assay: DMEM w/o phenol red (Gibco 11880-028), Pen/strep (Invitrogen 15140-122), G418 (Invitrogen 10131-027), 1 M Hepes (Gibco 15630), EDTA (Invitrogen 15575-038), PBS (Invitrogen 14190-094), fetal calf serum (Invitrogen 16140-071), EGTA, MgCl2 (Merck 1.05832.1000), Tween 20 (Amresco 0850C335), SPA particles (wheat germ agglutinin (WGA) SPA beads, Perkin Elmer RPNQ0001), [125I]-GLP-1]-(7-36)NH2 (produced in-house), OptiPlate™-96 (Perkin Elmer).
Buffer 1 consisted of 20 mM Na-HEPES plus 10 mM EDTA and pH was adjusted to 7.4.
Buffer 2 consisted of 20 mM Na-HEPES plus 0.1 mM EDTA and pH was adjusted to 7.4.
Assay buffer consisted of 50 mM HEPES supplemented with 5 mM EGTA, 5 mM MgCl2, 0.005% Tween 20 and pH was adjusted to 7.4.
The cells used in this assay (clone FCW467-12A) were BHK cells with BHKTS13 as a parent cell line. The cells express the human GLP-1 receptor.
The cells were grown at 5% CO2 in DMEM, 10% fetal calf serum, 1% Pen/Strep (Penicillin/Streptomycin) and 1.0 mg/ml of the selection marker G418. To make a membrane preparation the cells were grown to approximately 80% confluence. The cells were washed twice in phosphate-buffered saline and harvested. The cells were pelleted using a brief centrifugation and the cell pellet was kept on ice. The cell pellet was homogenised with ULTRA-THURRAX dispersing instrument for 20-30 sec in a suitable amount of buffer 1 (e.g. 10 ml). The homogenate was centrifuged for 15 min. The pellet was re-suspended (homogenised) in 10 ml buffer 2 and centrifuged. This step was repeated once more. The resulting pellet was re-suspended in buffer 2 and the protein concentration was determined. The membranes were aliquoted and stored at minus 80° C.
1. For the receptor binding assay, 50 μl of the assay buffer was added to each well of an assay plate.
2. Test compounds were serially diluted to give the following concentrations: 8×10EE-7 M, 8×10EE-8 M, 8×10EE-9 M, 8×10EE-10 M, 8×10EE-11 M, 8×10EE-12 M and 8×10EE-13 M. Twenty-five μl were added to appropriate wells in the assay plate.
3. Cell membrane aliquots were thawed and diluted to their working concentration. Fifty μl were added to each well in the assay plate.
4. WGA SPA beads were suspended in assay buffer at 20 mg/ml. The suspension was diluted to 10 mg/ml in assay buffer just prior to addition to the assay plate. Fifty μl were added to each well in the assay plate.
5. The incubation was started by adding 25 μl of 480 pM solution of [125I]-GLP-1]-(7-36)NH2 to each well of the assay plate. A 25 μl aliquot was reserved for measuring total counts/well.
6. The assay plate was incubated for 2 h at 30° C.
7. The assay plate was centrifuged for 10 min.
8. The assay plate was read in a Perkin Elmer TopCount NXT instrument. […]

[1] = Thioflavin T (ThT) fibrillation assay for physical stability; assay type: physicochemical; details: 250 μM in 10 mM HEPES buffer, pH 7.5, 37° C., shaking 960 rpm
Source text: The purpose of this assay was to assess the physical stability of the glucagon derivatives of the invention in aqueous solutions.
Low physical stability of a peptide may lead to amyloid fibril formation, which is observed as well-ordered, thread-like macromolecular structures in the sample, which eventually may lead to gel formation. This has traditionally been measured by visual inspection of the sample. However, that kind of measurement is very subjective and depending on the observer. Therefore, the application of a small molecule indicator probe is much more advantageous. Thioflavin T (ThT) is such a probe and has a distinct fluorescence signature when binding to fibrils [Naiki et al; Anal. Biochem. 1989 177 244-249; LeVine; Methods. Enzymol. 1999 309 274-284].
The time course for fibril formation can be described by a sigmoidal curve with the following expression [Nielsen et al; Biochemistry 2001 40 6036-6046]:
Here, as depicted in FIG. 1, F is the ThT fluorescence at the time t. The constant t0 is the time needed to reach 50% of maximum fluorescence. The two important parameters describing fibril formation are the lag-time calculated by t0−2τ and the apparent rate constant kapp 1/τ.
Samples were prepared freshly before each assay. Each sample composition is described in the legends. The pH of the sample was adjusted to the desired value using appropriate amounts of concentrated NaOH and HCl. Thioflavin T was added to the samples from a stock solution in H2O to a final concentration of 1 μM.
Sample aliquots of 200 μl (250 μM of the glucagon derivative/analogue in 10 mM HEPES buffer, pH 7.5) were placed in a 96 well microtiter plate (Packard OptiPlate™-96, white polystyrene). Usually, four or eight replica of each sample (corresponding to one test condition) were placed in one column of wells. The plate was sealed with Scotch Pad (Qiagen).
Incubation at given temperature, shaking and measurement of the ThT fluorescence emission were done in a Fluoroskan Ascent FL fluorescence plate reader (Thermo Labsystems). The temperature was set to 37° C. and the plate was incubated with orbital shaking adjusted to 960 rpm with an amplitude of 1 mm. Fluorescence measurement was done using excitation through a 444 nm filter and measurement of emission through a 485 nm filter.
Each run was initiated by incubating the plate at the assay temperature for 10 min. The plate was measured every 20 minutes for a desired period of time. Between each measurement, the plate was shaken and heated as described.
After completion of the ThT assay the four or eight replica of each sample was pooled and centrifuged at 20000 rpm for 30 minutes at 18° C. The supernatant was filtered through a 0.22 μm filter and an aliquot was transferred to a HPLC vial.
The concentration of peptide in the initial sample and in the filtered supernatant was determined by reverse phase HPLC using an appropriate standard as reference. The percentage fraction the concentration of the filtered sample constituted of the initial sample concentration was reported as the recovery.
The measurement points were saved in Microsoft Excel format for further processing and curve drawing and fitting was performed using GraphPad Prism. The background emission from ThT in the absence of fibrils was negligible. The data points were typically a mean of four or eight samples.
The data set may be fitted to Eq. (1).

Structure (SMILES)	IC50 (human GLP-1 receptor) [nM]	THT assay Lag time (Ex. 76) [1] [h]
CC(C)C[C@H](NC(=O)[C@H](CC(C)C)NC(=O)[C@H](Cc1c[nH]c2ccccc12)NC(=O)[C@H](CCC(N)=O)NC(=O)[C@@H](NC(=O)[C@H](Cc1ccccc1)NC(=O)[C@H](CCC(=O)O)NC(=O)[C@H](CCCNC(=N)N)NC(=O)[C@H](C)NC(=O)[C@H](C)NC(=O)[C@H](CCCNC(=N)N)NC(=O)[C@H](CO)NC(=O)[C@H](CC(=O)O)NC(=O)[C@H](CC(C)C)NC(=O)[C@H](Cc1ccc(O)cc1)NC(=O)[C@H](CCCCN)NC(=O)[C@H](CO)NC(=O)[C@H](CC(C)C)NC(=O)[C@H](CC(=O)O)NC(=O)[C@H](CO)NC(=O)[C@@H](NC(=O)[C@H](Cc1ccccc1)NC(=O)[C@@H](NC(=O)CNC(=O)[C@H](CCC(N)=O)NC(=O)C(C)(C)NC(=O)[C@@H](N)Cc1c[nH]cn1)[C@@H](C)O)[C@@H](C)O)C(C)C)C(=O)N[C@@H](CC(N)=O)C(=O)N[C@@H](CCCCNC(=O)CC[C@H](NC(=O)CC[C@H](NC(=O)COCCOCCNC(=O)COCCOCCNC(=O)CC[C@H](NC(=O)CCCCCCCCCCCCCCCCC(=O)O)C(=O)O)C(=O)O)C(=O)O)C(N)=O [Example 9, N^ε29-[(4S)-4-carboxy-4-[[(4S)-4-carboxy-4-[[2-[2-[2-[[2-[2-[2-[[(4S)-4-carboxy-4-(17-carboxyheptadecanoylamino)butanoyl]amino]ethoxy]ethoxy]acetyl]amino]ethoxy]ethoxy]acetyl]amino]butanoyl]amino]butanoyl]-[Aib2,Leu10,Ala18,Arg20,Glu21,Leu27,Lys29]-Glucagon amide] (H-H[Aib]QGTFTSDLSKYLDSRAAREFVQWLLNK([γGlu-γGlu-AEEA-AEEA-γGlu-C18 diacid])-NH2; N-terminus assumed)	0.2	8
CC(C)C[C@H](NC(=O)[C@H](Cc1c[nH]c2ccccc12)NC(=O)[C@H](C)NC(=O)[C@@H](NC(=O)[C@H](Cc1ccccc1)NC(=O)[C@H](CCC(=O)O)NC(=O)[C@H](CCCNC(=N)N)NC(=O)[C@H](C)NC(=O)[C@H](C)NC(=O)[C@H](CCCCN)NC(=O)[C@H](CCCCNC(=O)CC[C@H](NC(=O)CC[C@H](NC(=O)COCCOCCNC(=O)COCCOCCNC(=O)CC[C@H](NC(=O)CCCCCCCCCCCCCCCCC(=O)O)C(=O)O)C(=O)O)C(=O)O)NC(=O)[C@H](CC(=O)O)NC(=O)[C@H](CC(C)C)NC(=O)[C@H](Cc1ccc(O)cc1)NC(=O)[C@H](CCCCN)NC(=O)[C@H](CO)NC(=O)[C@H](CC(C)C)NC(=O)[C@H](CC(=O)O)NC(=O)[C@H](CO)NC(=O)[C@@H](NC(=O)[C@H](Cc1ccccc1)NC(=O)[C@@H](NC(=O)CNC(=O)[C@H](CCC(N)=O)NC(=O)C(C)(C)NC(=O)[C@@H](N)Cc1c[nH]cn1)[C@@H](C)O)[C@@H](C)O)C(C)C)C(=O)N[C@@H](CC(C)C)C(=O)N[C@@H](CC(N)=O)C(=O)N[C@H](C(N)=O)[C@@H](C)O [Example 17, N^ε29-[(4S)-4-carboxy-4-[[(4S)-4-carboxy-4-[[2-[2-[2-[[2-[2-[2-[[(4S)-4-carboxy-4-(17-carboxyheptadecanoylamino)butanoyl]amino]ethoxy]ethoxy]acetyl]amino]ethoxy]ethoxy]acetyl]amino]butanoyl]amino]butanoyl]-[Aib2,Leu10,Lys16,Lys17,Ala18,Arg20,Glu21,Ala24, Leu27]-Glucagon amide] (H-H[Aib]QGTFTSDLSKYLDK([γGlu-γGlu-AEEA-AEEA-γGlu-C18 diacid])KAAREFVAWLLNT-NH2)	0.2	45
CC(C)C[C@H](NC(=O)[C@H](Cc1ccc(O)cc1)NC(=O)[C@H](CCCCN)NC(=O)[C@H](CO)NC(=O)[C@H](CC(C)C)NC(=O)[C@H](CC(=O)O)NC(=O)[C@H](CO)NC(=O)[C@@H](NC(=O)[C@H](Cc1ccccc1)NC(=O)[C@@H](NC(=O)CNC(=O)[C@H](CCC(N)=O)NC(=O)C(C)(C)NC(=O)[C@@H](N)Cc1c[nH]cn1)[C@@H](C)O)[C@@H](C)O)C(=O)N[C@@H](CCC(=O)O)C(=O)N[C@@H](CO)C(=O)N[C@@H](CCCCN)C(=O)N[C@@H](C)C(=O)N[C@@H](C)C(=O)N[C@@H](CCCNC(=N)N)C(=O)N[C@@H](CCC(=O)O)C(=O)N[C@@H](Cc1ccccc1)C(=O)N[C@H](C(=O)N[C@@H](CCC(N)=O)C(=O)N[C@@H](Cc1c[nH]c2ccccc12)C(=O)N[C@@H](CC(C)C)C(=O)N[C@@H](CC(C)C)C(=O)N[C@@H](CCCCNC(=O)CC[C@H](NC(=O)CC[C@H](NC(=O)COCCOCCNC(=O)COCCOCCNC(=O)CC[C@H](NC(=O)CCCCCCCCCCCCCCCCC(=O)O)C(=O)O)C(=O)O)C(=O)O)C(=O)N[C@H](C(N)=O)[C@@H](C)O)C(C)C [Example 24, N^ε28-[(4S)-4-carboxy-4-[[(4S)-4-carboxy-4-[[2-[2-[2-[[2-[2-[2-[[(4S)-4-carboxy-4-(17-carboxyheptadecanoylamino)butanoyl]amino]ethoxy]ethoxy]acetyl]amino]ethoxy]ethoxy]acetyl]amino]butanoyl]amino]butanoyl]-[Aib2,Leu10,Glu15,Lys17,Ala18,Arg20,Glu21,Leu27, Lys28]-Glucagon amide] (H-H[Aib]QGTFTSDLSKYLESKAAREFVQWLLK([γGlu-γGlu-AEEA-AEEA-γGlu-C18 diacid])T-NH2; N-terminus assumed)	0.2	28
